Key:
Assay in all cases: relative viability (nuclei count vs DMSO), 5 days (fraction); higher = more cells survive
[1] = system: NCI-H1915
Summary of the method: (§1)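 Lung cancer cell lines were seeded in 1536-well plates and dosed by pin tool the next day, with either a single drug or a fixed anchor-drug dose combined with five library-drug doses (not always all listed) spaced in √10 steps. Five days later, one step fixed the cells and stained their nuclei (final 0.05% Triton X-100, 1% formaldehyde, 1 ug/ml Hoechst), and nuclei were counted on 4× images. Relative viability is the nuclei count in treated wells divided by the count in vehicle wells, and each value is the median of duplicate plates.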

[2] = system: NCI-H23
Summary of the method: as §1

[3] = system: NCI-H2228
Summary of the method: as §1

[4] = system: NCI-H460
Summary of the method: as §1

[5] = system: CAL-12T
Summary of the method: as §1

[6] = system: SK-LU-1
Summary of the method: as §1

[7] = system: EMC-BAC-2
Summary of the method: as §1

[8] = system: NCI-H1437
Summary of the method: as §1

[9] = system: NCI-H1792
Summary of the method: as §1

[10] = system: HCC-827
Summary of the method: as §1

[11] = system: NCI-H1975
Summary of the method: as §1

[12] = system: NCI-H1755
Summary of the method: as §1

[13] = system: SW 1573
Summary of the method: as §1

[14] = system: NCI-H727
Summary of the method: as §1

[15] = system: HOP-62
Summary of the method: as §1

[16] = system: NCI-H2009
Summary of the method: as §1

[17] = system: HCC-366
Summary of the method: as §1

[18] = system: NCI-H1355
Summary of the method: as §1

[19] = system: COR-L 105
Summary of the method: as §1

[20] = system: HARA
Summary of the method: as §1

[21] = system: A-427
Summary of the method: as §1

[22] = system: NCI-H1395
Summary of the method: as §1

Q: Which results are given for `NC(=O)Nc1cc(-c2cccc(F)c2)sc1C(=O)N[C@H]1CCCNC1` [AZD7762] + CS(=O)(=O)CCNCc1ccc(-c2ccc3ncnc(Nc4ccc(OCc5cccc(F)c5)c(Cl)c4)c3c2)o1 [Lapatinib] (partner 2 µM)?
A: relative viability ([1]; first compound 0.01 µM): 1; relative viability ([1]; first compound 0.03162 µM): 1; relative viability ([1]; first compound 0.1 µM): 0.943; relative viability ([1]; first compound 0.3162 µM): 0.909; relative viability ([1]; first compound 1 µM): 0.933; relative viability ([2]; first compound 0.01 µM): 1.08; relative viability ([2]; first compound 0.03162 µM): 1.04; relative viability ([2]; first compound 0.1 µM): 1.18; relative viability ([2]; first compound 0.3162 µM): 0.508; relative viability ([2]; first compound 1 µM): 0.3; relative viability ([3]; first compound 0.01 µM): 1.28; relative viability ([3]; first compound 0.03162 µM): 1.46; relative viability ([3]; first compound 0.1 µM): 1.22; relative viability ([3]; first compound 0.3162 µM): 0.34; relative viability ([3]; first compound 1 µM): 0.231; relative viability ([4]; first compound 0.01 µM): 1.07; relative viability ([4]; first compound 0.03162 µM): 0.972; relative viability ([4]; first compound 0.1 µM): 0.824; relative viability ([4]; first compound 0.3162 µM): 0.467; relative viability ([4]; first compound 1 µM): 0.0597; relative viability ([5]; first compound 0.01 µM): 0.781; relative viability ([5]; first compound 0.03162 µM): 0.649; relative viability ([5]; first compound 0.1 µM): 0.649; relative viability ([5]; first compound 0.3162 µM): 0.703; relative viability ([5]; first compound 1 µM): 0.314; relative viability ([6]; first compound 0.01 µM): 0.943; relative viability ([6]; first compound 0.03162 µM): 0.714; relative viability ([6]; first compound 0.1 µM): 0.456; relative viability ([6]; first compound 0.3162 µM): 0.276; relative viability ([6]; first compound 1 µM): 0.217; relative viability ([7]; first compound 0.01 µM): 0.908; relative viability ([7]; first compound 0.03162 µM): 0.929; relative viability ([7]; first compound 0.1 µM): 0.919; relative viability ([7]; first compound 0.3162 µM): 0.91; relative viability ([7]; first compound 1 µM): 0.894; relative viability ([8]; first compound 0.01 µM): 0.809; relative viability ([8]; first compound 0.03162 µM): 0.647; relative viability ([8]; first compound 0.1 µM): 0.875; relative viability ([8]; first compound 0.3162 µM): 0.841; relative viability ([8]; first compound 1 µM): 0.526; relative viability ([9]; first compound 0.01 µM): 0.965; relative viability ([9]; first compound 0.03162 µM): 0.911; relative viability ([9]; first compound 0.1 µM): 0.925; relative viability ([9]; first compound 0.3162 µM): 0.945; relative viability ([9]; first compound 1 µM): 1.05; relative viability ([10]; first compound 0.01 µM): 0.202; relative viability ([10]; first compound 0.03162 µM): 0.177; relative viability ([10]; first compound 0.1 µM): 0.189; relative viability ([10]; first compound 0.3162 µM): 0.178; relative viability ([10]; first compound 1 µM): 0.197; relative viability ([11]; first compound 0.01 µM): 0.89; relative viability ([11]; first compound 0.03162 µM): 0.831; relative viability ([11]; first compound 0.1 µM): 0.776; relative viability ([11]; first compound 0.3162 µM): 0.639; relative viability ([11]; first compound 1 µM): 0.398; relative viability ([12]; first compound 0.01 µM): 1.07; relative viability ([12]; first compound 0.03162 µM): 1.1; relative viability ([12]; first compound 0.1 µM): 1.17; relative viability ([12]; first compound 0.3162 µM): 0.924; relative viability ([12]; first compound 1 µM): 0.364; relative viability ([13]; first compound 0.01 µM): 1.29; relative viability ([13]; first compound 0.03162 µM): 1.23; relative viability ([13]; first compound 0.1 µM): 1.16; relative viability ([13]; first compound 0.3162 µM): 1.24; relative viability ([13]; first compound 1 µM): 1.12; relative viability ([14]; first compound 0.01 µM): 0.891; relative viability ([14]; first compound 0.03162 µM): 0.985; relative viability ([14]; first compound 0.1 µM): 0.578; relative viability ([14]; first compound 0.3162 µM): 0.36; relative viability ([14]; first compound 1 µM): 0.271; relative viability ([15]; first compound 0.01 µM): 0.993; relative viability ([15]; first compound 0.03162 µM): 1.06; relative viability ([15]; first compound 0.1 µM): 1.27; relative viability ([15]; first compound 0.3162 µM): 0.989; relative viability ([15]; first compound 1 µM): 0.565; relative viability ([16]; first compound 0.01 µM): 1.25; relative viability ([16]; first compound 0.03162 µM): 1.04; relative viability ([16]; first compound 0.1 µM): 1; relative viability ([16]; first compound 0.3162 µM): 0.896; relative viability ([16]; first compound 1 µM): 0.518; relative viability ([17]; first compound 0.01 µM): 0.991; relative viability ([17]; first compound 0.03162 µM): 1.12; relative viability ([17]; first compound 0.1 µM): 0.879; relative viability ([17]; first compound 0.3162 µM): 0.375; relative viability ([17]; first compound 1 µM): 0.0771; relative viability ([18]; first compound 0.01 µM): 1; relative viability ([18]; first compound 0.03162 µM): 0.993; relative viability ([18]; first compound 0.1 µM): 1.01; relative viability ([18]; first compound 0.3162 µM): 1.02; relative viability ([18]; first compound 1 µM): 0.719; relative viability ([19]; first compound 0.01 µM): 0.413; relative viability ([19]; first compound 0.03162 µM): 0.353; relative viability ([19]; first compound 0.1 µM): 0.254; relative viability ([19]; first compound 0.3162 µM): 0.332; relative viability ([19]; first compound 1 µM): 0.282; relative viability ([20]; first compound 0.01 µM): 0.851; relative viability ([20]; first compound 0.03162 µM): 0.763; relative viability ([20]; first compound 0.1 µM): 0.759; relative viability ([20]; first compound 0.3162 µM): 0.781; relative viability ([20]; first compound 1 µM): 0.256; relative viability ([21]; first compound 0.01 µM): 1.09; relative viability ([21]; first compound 0.03162 µM): 1.05; relative viability ([21]; first compound 0.1 µM): 1.07; relative viability ([21]; first compound 0.3162 µM): 0.938; relative viability ([21]; first compound 1 µM): 0.716; relative viability ([22]; first compound 0.01 µM): 1.04; relative viability ([22]; first compound 0.03162 µM): 1.06; relative viability ([22]; first compound 0.1 µM): 1.05; relative viability ([22]; first compound 0.3162 µM): 0.543; relative viability ([22]; first compound 1 µM): 0.362

Reference: the supplement of paper PMC10307832
